Read-outs that look alike come from different tables or passages of the source.
Columns and labels:
[1] = system: RPMI 8402; test: Test B: MTT-microtiter plate tetrazolinium cytotoxicity assay, RPMI 8402; format: cell-based; settings: Homo sapiens, RPMI 8402, 96 h, read-out: Cytotoxicity IC50 RPMI 8402
Description: (§1) The cytotoxicity was determined using the MTT-microtiter plate tetrazolinium cytotoxicity assay (MTA—See Mosmann, T., J. Immunol. Methods 1983, 65, 55-63; Carmichael, J., et al., Cancer Res. 1987, 47, 936-942; and Denizot, F., et al., J. Immunol. Methods 1986, 89, 271-277). […] The cytotoxicity assay was performed using 96-well microtiter plates. Cells were grown in suspension at 37° C. in 5% CO2 and maintained by regular passage in RPMI medium supplemented with 10% heat-inactivated fetal bovine serum, L-glutamine (2 mM), penicillin (100 U/mL), and streptomycin (0.1 mg/mL). […] For determination of IC50, cells were exposed continuously for 4 days to varying concentrations of drug, and MTT assays were performed at the end of the fourth day. […] All assays were performed at least twice in 6 replicate wells.

[2] = system: P388; test: MTT cytotoxicity assay, P388; format: cell-based; settings: Mus musculus, P388, 96 h, read-out: Cytotoxicity IC50 P388
Description: as §1

[3] = system: P388/CPT45; test: MTT cytotoxicity assay, P388/CPT45; format: cell-based; settings: Mus musculus, P388CPT45, 96 h, read-out: Cytotoxicity IC50 P388/CPT45
Description: as §1

[4] = system: CPT-K5; test: Test B: MTT-microtiter plate tetrazolinium cytotoxicity assay, CPT-K5 (camptothecin-resistant variant); format: cell-based; settings: Homo sapiens, CPT-K5, 96 h, read-out: Cytotoxicity IC50 CPT-K5
Description: as §1

[5] = target: T1, human topoisomerase I (Homo sapiens, UniProt P11387); test: Test A: topoisomerase I-mediated DNA cleavage assay; format: biochemical; settings: concentration relative to topotecan (=1) producing the same cleavage on plasmid DNA in presence of human TOP1
T1 construct: unnamed fusion partner (recombinant fusion protein, T7 expression system); made in house; host or cells: E. coli
T1 sequence (P11387 1-765): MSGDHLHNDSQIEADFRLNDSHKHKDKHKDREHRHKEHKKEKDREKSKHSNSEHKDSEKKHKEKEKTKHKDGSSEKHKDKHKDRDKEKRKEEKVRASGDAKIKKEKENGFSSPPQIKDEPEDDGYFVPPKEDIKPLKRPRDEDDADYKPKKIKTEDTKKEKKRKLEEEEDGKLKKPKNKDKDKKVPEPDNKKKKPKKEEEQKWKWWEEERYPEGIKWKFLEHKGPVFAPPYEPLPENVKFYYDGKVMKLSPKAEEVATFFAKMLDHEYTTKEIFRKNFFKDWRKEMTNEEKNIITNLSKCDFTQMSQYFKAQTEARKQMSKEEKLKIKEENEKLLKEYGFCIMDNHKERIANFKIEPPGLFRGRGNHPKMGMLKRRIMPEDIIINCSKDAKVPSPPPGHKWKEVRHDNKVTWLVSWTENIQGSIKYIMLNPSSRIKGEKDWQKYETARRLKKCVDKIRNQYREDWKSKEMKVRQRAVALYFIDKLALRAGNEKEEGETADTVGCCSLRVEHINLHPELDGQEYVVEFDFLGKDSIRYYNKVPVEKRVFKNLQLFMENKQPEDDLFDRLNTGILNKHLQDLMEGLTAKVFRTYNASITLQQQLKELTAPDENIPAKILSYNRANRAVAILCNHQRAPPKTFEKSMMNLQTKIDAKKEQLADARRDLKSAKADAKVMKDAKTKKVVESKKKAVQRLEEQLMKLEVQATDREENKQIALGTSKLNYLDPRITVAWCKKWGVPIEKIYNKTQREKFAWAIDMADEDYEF
Excerpt: Test A. Topoisomerase-Mediated DNA Cleavage Assays
Human topoisomerase I was expressed in E. Coli and isolated as a recombinant fusion protein using a T7 expression system as described by Gatto, B., et al., Cancer Res. 1996, 56, 2795-2800. Plasmid YepG was purified by the alkali lysis method followed by phenol deproteination and CsCl/ethidium isopycnic centrifugation method as described by Maniatis, T., et al., J. Molecular Cloning, a Laboratory Manual; Cold Spring Harbor Laboratory: Cold Spring Harbor, N.Y. 1982; pp 149-185. The end-labeling of the plasmid was accomplished by digestion with a restriction enzyme followed by end-filling with Klenow polymerase as previously described by Tewey, K. M., et al., Science 1984, 226, 466-468. The cleavage assays were performed as previously reported (see Gatto, B., et al., Cancer Res. 1996, 56, 2795-2800; and Wang, H., et al., Biochemistry 2001, 40; 3316-3323). The drug and the DNA in presence of topoisomerase I was incubated for 30 minutes at 37° C. The reactions were terminated by the addition of 5 μl of 5% SDS and 1 mg/ml […] with an additional 1 hour of incubation at 37° C. Samples were then alkali denatured by the addition of NaOH, EDTA, sucrose, and bromophenol blue to final concentrations of 75 mM, 2.5%, and 0.05 mg/ml, respectively, prior to loading onto a neutral agarose gel. After development of the gels, typically 24-hour exposure was used to obtain autoradiograms outlining the extent of DNA fragmentation.

Row | melting point | TOP1-mediated DNA Cleavage (REC, relative effective concentration) [5] | SMILES | IC50 ([1]; 4 days of continuous drug exposure, MTT) [nM] | IC50 ([2]; 4 days of continuous drug exposure) [nM] | IC50 [3] [nM] | IC50 [1] [nM] | IC50 [4] [nM] | IC50 [2] [nM]
1 |  |  | CC[C@@]1(O)C(=O)OCc2c1cc1n(c2=O)Cc2cc3ccccc3nc2-1 [CPT, Camptothecin, reference compound] | 5 | 9 | > 10000 |  |  | 
2 | 257 to 258 °C | 9 | COc1cc2c(=O)n(CCN(C)C)c3c4cccc([N+](=O)[O-])c4ncc3c2cc1OC [Compound 3a, 8,9-Dimethoxy-1-nitro-5-[2-(N,N-dimethylamino)ethyl]-5H-dibenzo[c,h][1,6]naphthyridin-6-one] |  |  | 2100 | 220 | 3000 | 190
3 | 214 to 217 °C | 6 | COc1cc2c(=O)n(CCN(C)C)c3c4ccc([N+](=O)[O-])cc4ncc3c2cc1OC [Compound 3b, 8,9-Dimethoxy-2-nitro-5-[2-(N,N-dimethylamino)ethyl]-5H-dibenzo[c,h][1,6]naphthyridin-6-one] |  |  | 340 | 75 | 3350 | 30
4 | 232 to 234 °C | 2 | COc1cc2c(=O)n(CCN(C)C)c3c4cc([N+](=O)[O-])ccc4ncc3c2cc1OC [Compound 3c, 8,9-Dimethoxy-3-nitro-5-[2-(N,N-dimethylamino)ethyl]-5H-dibenzo[c,h][1,6]naphthyridin-6-one] |  |  | 200 | 18 | 800 | 40
5 | 194 to 195 °C | >300 | COc1cc2c(=O)n(CCN(C)C)c3c(cnc4cccc([N+](=O)[O-])c43)c2cc1OC [Compound 3d, 8,9-Dimethoxy-4-nitro-5-[2-(N,N-dimethylamino)ethyl]-5H-dibenzo[c,h][1,6]-naphthyridin-6-one] |  |  | 7000 | 5500 | 11500 | 6000
6 | 226 to 229 °C | 100 | COc1cc2c(=O)n(CCN(C)C)c3c4cccc(N)c4ncc3c2cc1OC [Compound 4a, 1-Amino-8,9-dimethoxy-5-[2-(N,N-dimethylamino)ethyl]-5H-dibenzo[c,h][1,6]naphthyridin-6-one] |  |  | 210 | 650 | 2000 | 350
7 | 208 to 210 °C | 12 | COc1cc2c(=O)n(CCN(C)C)c3c4ccc(N)cc4ncc3c2cc1OC [Compound 4b, 2-Amino-8,9-dimethoxy-5-[2-(N,N-dimethylamino)ethyl]-5H-dibenzo[c,h][1,6]naphthyridin-6-one] |  |  | 230 | 100 | 2100 | 60
8 | 213 to 215 °C | 6 | COc1cc2c(=O)n(CCN(C)C)c3c4cc(N)ccc4ncc3c2cc1OC [Compound 4c, 3-Amino-8,9-dimethoxy-5-[2-(N,N-dimethylamino)ethyl]-5H-dibenzo[c,h][1,6]naphthyridin-6-one] |  |  | 330 | 40 | 1350 | 20
9 | 239 to 241 °C | >300 | COc1cc2c(=O)n(CCN(C)C)c3c(cnc4cccc(N)c43)c2cc1OC [Compound 4d, 4-Amino-8,9-dimethoxy-5-[2-(N,N-dimethylamino)ethyl]-5H-dibenzo[c,h][1,6]-naphthyridin-6-one] |  |  | 3500 | 4000 | 8000 | 3000
10 |  | 10 | COc1cc2c(=O)n(CCN(C)C)c3c4ccccc4ncc3c2cc1OC [Compound 5, 8,9-Dimethoxy-5-[2-(N,N-dimethylamino)ethyl]-5H-dibenzo[c,h]1,6-naphthyridin-6-one, reference compound] |  |  | 300 | 100 | 1650 | 70
11 | 262 to 264 °C (dec.) |  | COc1cc2c(=O)n(CCN(C)C)c3c4cc([N+](=O)[O-])ccc4nnc3c2cc1OC [Compound 12a, 11-(2-Dimethylaminoethyl)-2,3-dimethoxy-9-nitro-11H-5,6,11-triazachrysen-12-one] |  |  |  | 3 | 3300 | 
12 |  |  | COc1cc2c(=O)n(CCN(C)C)c3c4ccccc4nnc3c2cc1OC [Compound 12b, 11-(2-Dimethylaminoethyl)-2,3-dimethoxy-11H-5,6,11-triazachrysen-12-one, reference compound] |  |  |  | 18 | 1500 | 
13 |  | 1 | CC[C@@]1(O)C(=O)OCc2c1cc1n(c2=O)Cc2cc3c(CN(C)C)c(O)ccc3nc2-1 [Topotecan, reference compound] |  |  | > 10000 |  | > 50000 | 35
14 |  |  | COc1cc([C@@H]2c3cc4c(cc3[C@@H](O[C@@H]3O[C@@H]5CO[C@@H](c6cccs6)O[C@H]5[C@H](O)[C@H]3O)[C@H]3COC(=O)[C@H]23)OCO4)cc(OC)c1O [VM-26, teniposide, reference compound] |  |  |  |  | 280 | 
